{"source": "patent US20250027079A1", "about": "(priority 2020, published 2025)", "key": {"[1]": {"system": "CLas", "type": "in vivo, Candidatus Liberibacter asiaticus", "conditions": "for effect on quantity of the bacterium (Liberibacter titer) in infected Citrus trees: FANA 5 μM, streptomycin sulfate 5 mg/mL, sampling 2, 7, 14, 30 days (FIG. 5); for Liberibacter repression (percent change in CLas titer): CLas-infected Citrus trees, root infusion 5 mL of 5 μM"}, "[2]": {"system": "CLso", "type": "in vivo, Candidatus Liberibacter solanacearum", "conditions": "for foliar disease symptoms (foliar symptom ranking) / products with the greatest foliar symptom reduction: 8 week trial; for foliar disease symptoms (foliar symptom ranking): soil application (FIG. 11B); for products with the greatest foliar symptom reduction: comparison among all products (FIG. 11B); for tuber disease symptoms (proportion of symptomatic tubers) compared to CLso infected Control tubers: 8 week trial (FIG. 11C)"}, "[3]": {"system": "CLso", "type": "in vivo, Candidatus Liberibacter solanacearum", "conditions": "CLso infected potato, soil applied drench, one gallon pots (FIG. 8); infected untreated control ave. 39, uninfected healthy 66 cm"}, "[4]": {"system": "wDi gyrA gene", "type": "cell-based, Wolbachia-Diaphorina"}, "[5]": {"system": "CLas", "type": "in vivo, Candidatus Liberibacter asiaticus"}, "[6]": {"system": "wDi cells"}, "[7]": {"system": "CLas LigA gene", "type": "in vivo, Candidatus Liberibacter asiaticus"}, "[8]": {"system": "CLas", "type": "in vivo, Candidatus Liberibacter asiaticus", "remark": "listed apart in the source"}, "[9]": {"system": "D. citri adults", "parameters": "species or system Diaphorina citri", "conditions": "in vivo"}}, "note": "Where a name gives a salt, the structure may show the parent alone. Read-outs that look alike come from different tables or passages of the source. {AF594} = Alexa Fluor 594 dye", "data": [{"compound": "[H]/N=C(/N)N[C@H]1[C@H](O)[C@@H](O)[C@H](O[C@@H]2O[C@@H](C)[C@](O)(C=O)[C@H]2O[C@@H]2O[C@@H](CO)[C@H](O)[C@@H](O)[C@@H]2NC)[C@@H](N/C(N)=N\\[H])[C@@H]1O", "note": "[streptomycin sulfate, reference compound]", "values": [{"measurement": "effect on quantity of the bacterium (Liberibacter titer) in infected Citrus trees", "setting": "[1]; root infusion", "value": "did not significantly reduced"}]}, {"compound": "AATAAACGCAATGACCAATCC (FANA modification, further chemistry not given here) [CLso-1 GyrA-Ext-1, FANA ASO, CLso Gyrase-A]", "values": [{"measurement": "foliar disease symptoms (foliar symptom ranking)", "setting": "[2]", "value": "significantly reduced"}, {"measurement": "plant growth, average height", "setting": "[3]", "value": 51, "unit": "centimeters"}]}, {"compound": "ATAACCTTGACGATCTGATTC (FANA modification, further chemistry not given here) [CLso-2 Gyr-Ext-2, FANA ASO, CLso Gyrase-A]", "values": [{"measurement": "products with the greatest foliar symptom reduction", "setting": "[2]", "value": "most symptom reduction"}, {"measurement": "foliar disease symptoms (foliar symptom ranking)", "setting": "[2]", "value": "significantly reduced"}, {"measurement": "plant growth, average height", "setting": "[3]", "value": 51, "unit": "centimeters"}]}, {"compound": "AUAUCCTTGTCGTATCCCAGU (FANA modification, further chemistry not given here) [scramble control FANA, reference compound]", "values": [{"measurement": "expression of the wDi gyrA gene versus untreated cells", "setting": "[4]", "value": "No significant difference"}, {"measurement": "CLas density (copy number) in psyllids", "setting": "[5]; in vivo", "value": "No difference"}, {"measurement": "number of viable wDi cells (wDi copy number, PMA-qPCR)", "setting": "[6]", "value": "high wDi copy number"}, {"measurement": "toxicity of the FANA chemistry to the bacterial cells or the Drosophila S2 cells", "setting": "[6]", "value": "not toxic"}, {"measurement": "amount of CLas LygA mRNA versus untreated psyllids", "setting": "[7]; in vivo", "value": "no significant difference"}]}, {"compound": "CAAATCAGGTATAGCACGGCC (FANA modification, further chemistry not given here) [CLso-2Gyr, FANA ASO, CLso Gyrase A]", "values": [{"measurement": "foliar disease symptoms (foliar symptom ranking)", "setting": "[2]", "value": "significantly reduced"}]}, {"compound": "CATTTTGTATATGCGAGGACA (FANA modification, further chemistry not given here) [CLsoDNAB-4, FANA ASO, CLso DnaB-Helicase C]", "values": [{"measurement": "tuber disease symptoms (proportion of symptomatic tubers) compared to CLso infected Control tubers", "setting": "[2]", "value": "significantly reduced"}, {"measurement": "foliar disease symptoms (foliar symptom ranking)", "setting": "[2]", "value": "significantly reduced"}]}, {"compound": "CGATTAAAAGCTTGTCCAGCC (FANA modification, further chemistry not given here) [CLsoDNAB-3, FANA ASO, CLso DnaB-Helicase C]", "values": [{"measurement": "foliar disease symptoms (foliar symptom ranking)", "setting": "[2]", "value": "significantly reduced"}]}, {"compound": "CGGCACAGCAATTAGAACGTC (FANA modification, further chemistry not given here) [LigA-FANA, FANA antisense oligo designed to target the CLas NAD-dependent DNA Ligase A gene]", "values": [{"measurement": "Liberibacter repression (percent change in CLas titer)", "setting": "[1]; seven days post treatment (FIG. 5)", "value": 51.6, "unit": "%"}, {"measurement": "Liberibacter repression (percent change in CLas titer)", "setting": "[1]; two days post treatment (FIG. 5)", "value": 81, "unit": "%"}, {"measurement": "persistence of the suppression effect", "setting": "[1]; root infusion, sampling period", "value": 30, "unit": "days"}, {"measurement": "effect on quantity of the bacterium (Liberibacter titer) in infected Citrus trees", "setting": "[1]; root infusion", "value": "significantly reduced"}, {"measurement": "success of treated psyllids in transmitting the pathogen into citrus plants compared to untreated insects", "setting": "[8]; psyllids treated seven days, 15 days inoculation access on Citrus macrophylla seedlings, p=0.018", "value": "less successful in transmitting the pathogen"}, {"measurement": "CLas copy number detected in the citrus plants exposed to the treated psyllids", "setting": "[8]; seedlings sampled three months later (FIG. 7)", "value": "significantly lower"}, {"measurement": "CLas density (copy number) in psyllids", "setting": "[5]; D. citri adults, artificial diet 5 μM, seven days post-treatment, qPCR of 16S rRNA gene (FIG. 4), versus untreated psyllids", "value": "significantly lower"}, {"measurement": "decrease of expression of the bacterial target gene (CLas LigA) compared to untreated psyllids", "setting": "[7]; D. citri adults fed on excised Citrus leaves that took up 5 μM FANA solution, seven days, qRT-PCR (FIG. 2B)", "value": 75, "unit": "%"}, {"measurement": "CLas LigA transcript level compared to insects treated with the scramble control", "setting": "[7]; D. citri adults, 5 μM via leaves, seven days, p=0.009", "value": "significantly lower"}]}, {"compound": "GAAGAACGGGCGAACTTTTTG (chemistry not given here) [L. solanacearum CLso2 -GyrA host Potato]", "values": [{"measurement": "foliar disease symptoms (foliar symptom ranking)", "setting": "[2]", "value": "significantly reduced"}, {"measurement": "plant growth, average height", "setting": "[3]", "value": 51, "unit": "centimeters"}]}, {"compound": "GATTGAAGGGCAGGGGAATTC (chemistry not given here)", "values": [{"measurement": "foliar disease symptoms (foliar symptom ranking)", "setting": "[2]", "value": "significantly reduced"}]}, {"compound": "GCATCATTATTCACTAGGATAG (FANA modification, further chemistry not given here) [CLsoDNAB-1, FANA ASO, CLso DnaB-Helicase C]", "values": [{"measurement": "products with the greatest foliar symptom reduction", "setting": "[2]", "value": "most symptom reduction"}, {"measurement": "foliar disease symptoms (foliar symptom ranking)", "setting": "[2]", "value": "significantly reduced"}]}, {"compound": "GGGAATATTCGTCGCCATACC (FANA modification, further chemistry not given here) [CLso-4Gyr, FANA ASO, CLso Gyrase A]", "values": [{"measurement": "foliar disease symptoms (foliar symptom ranking)", "setting": "[2]", "value": "significantly reduced"}]}, {"compound": "TAGTTCCGATTTGTATGCATC (FANA modification, further chemistry not given here) [CLsoDnaB-6, FANA ASO, CLso DnaB-Helicase C]", "values": [{"measurement": "foliar disease symptoms (foliar symptom ranking)", "setting": "[2]", "value": "significantly reduced"}]}, {"compound": "TATGGAAACAGCCTCAGATGC (FANA modification, further chemistry not given here) [CLsoDNAB-2, FANA ASO, CLso DnaB-Helicase C]", "values": [{"measurement": "tuber disease symptoms (proportion of symptomatic tubers) compared to CLso infected Control tubers", "setting": "[2]", "value": "significantly reduced"}, {"measurement": "foliar disease symptoms (foliar symptom ranking)", "setting": "[2]", "value": "significantly reduced"}]}, {"compound": "TATTACGATAGATCCTCGACC (FANA modification, further chemistry not given here) [CLso-2Gyr-Ext-3, FANA ASO, CLso Gyrase A]", "values": [{"measurement": "foliar disease symptoms (foliar symptom ranking)", "setting": "[2]", "value": "significantly reduced"}]}, {"compound": "TGGTATGGCAACCAATATTCC (FANA modification, further chemistry not given here) [gyrA-FANA]", "values": [{"measurement": "reduction in the amount of the target mRNA (wDi gyrA) compared to untreated cells", "setting": "[4]; S2-wDi cells, 5 μM, seven days post-treatment, qRT-PCR (FIG. 2A)", "value": 30, "unit": "%"}, {"measurement": "wDi gyrA transcript level compared to cells treated with the scramble control", "setting": "[4]; S2-wDi cells, 5 μM, seven days, p=0.009", "value": "significantly lower"}, {"measurement": "number of viable wDi cells (wDi copy number, PMA-qPCR)", "setting": "[6]; isolated wDi cells, 5 μM, four days, versus untreated or scramble control (FIG. 3)", "value": "greatly reduced"}]}, {"compound": "TGTATATGCGAGGACATCGTC (FANA modification, further chemistry not given here) [CLso-DnaB-7, FANA ASO, CLso DnaB-Helicase C]", "values": [{"measurement": "foliar disease symptoms (foliar symptom ranking)", "setting": "[2]", "value": "significantly reduced"}]}, {"compound": "TTCTATCAGGGTAAATCGCTC (FANA modification, further chemistry not given here) [CLso-2 Gyr-Ext-4, FANA ASO, CLso Gyrase-A]", "values": [{"measurement": "tuber disease symptoms (proportion of symptomatic tubers) compared to CLso infected Control tubers", "setting": "[2]", "value": "significantly reduced"}, {"measurement": "foliar disease symptoms (foliar symptom ranking)", "setting": "[2]", "value": "significantly reduced"}, {"measurement": "plant growth, average height", "setting": "[3]", "value": 51, "unit": "centimeters"}]}, {"compound": "TTGTCCAGCCATATCAATAGC (FANA modification, further chemistry not given here) [CLsoDnaB-5, FANA ASO, CLso DnaB-Helicase C]", "values": [{"measurement": "foliar disease symptoms (foliar symptom ranking)", "setting": "[2]", "value": "significantly reduced"}]}, {"compound": "fluorophore-tagged FANA oligo control: FANA ASO with scramble sequence [SEQ ID NO: 1 and SEQ ID NO: 2] tagged with Alexa Fluor 594 at its 5′ end (chain 1 ACTGGGATACGACAAGGATAT; chain 2 TCTTGGAACAGCATAGGGACA; 5' {AF594}, sugars by position and backbone not given here; FANA ASO)", "values": [{"measurement": "localization of the oligo in psyllid alimentary canal", "setting": "[9]", "value": "detected mainly in the psyllid esophagus, filter chamber and anterior midgut"}]}]}
